In patent US5416081A, “Cephalosporin compounds” (Lucky Limited, priority 1992, dated 1995):
In brackets after ≈: the same amount, converted by molar mass. Where two headings read alike, the source gives them in different places.

Tests used:
Type in all cases: cell-based
S. aureus/6538pA = experiment: MIC against standard strain by two-fold agar dilution, S. aureus/6538pA; details: Staphylococcus aureus
Experimental: (§1) These MIC values were taken by employing a two-fold dilution method: that is, two-fold serial dilutions of each of the test compounds were made and dispersed in a Muller-Hinton agar medium; 2 μl of the standard test strain which had the 10^7 CFU(Colony Forming Unit) per ml was inoculated on the medium; and these were incubated at 37° C. for 20 hours.

S. aureus/giorigio = experiment: MIC against standard strain by two-fold agar dilution, S. aureus/giorigio; details: Staphylococcus aureus
Experimental: as §1

S. aureus/77 = experiment: MIC against standard strain by two-fold agar dilution, S. aureus/77; details: Staphylococcus aureus
Experimental: as §1

E. coli/10536 = experiment: MIC against standard strain by two-fold agar dilution, E. coli/10536; details: Escherichia coli
Experimental: as §1

E. coli/3190Y = experiment: MIC against standard strain by two-fold agar dilution, E. coli/3190Y; details: Escherichia coli
Experimental: as §1

E. coli TEM1/1193E = experiment: MIC against standard strain by two-fold agar dilution, E. coli TEM1/1193E; details: Escherichia coli, 20 h
Experimental: as §1

E. coli TEM5/3739E = experiment: MIC against standard strain by two-fold agar dilution, E. coli TEM5/3739E; details: Escherichia coli, 20 h
Experimental: as §1

E. coli TEM9/2639E = experiment: MIC against standard strain by two-fold agar dilution, E. coli TEM9/2639E; details: Escherichia coli, 20 h
Experimental: as §1

P. aeruginosa/1912E = experiment: MIC against standard strain by two-fold agar dilution, P. aeruginosa/1912E; details: Pseudomonas aeruginosa; P. aeruginosa/1912E; Muller-Hinton agar, 37° C., 20 hours; read-out: MIC
Experimental: as §1

P. aeruginosa/10145 = experiment: MIC against standard strain by two-fold agar dilution, P. aeruginosa/10145; details: Pseudomonas aeruginosa; P. aeruginosa/10145; Muller-Hinton agar, 37° C., 20 hours; read-out: MIC
Experimental: as §1

P. aeruginosa/6065Y = experiment: MIC against standard strain by two-fold agar dilution, P. aeruginosa/6065Y; details: Pseudomonas aeruginosa; P. aeruginosa/6065Y; Muller-Hinton agar, 37° C., 20 hours; read-out: MIC
Experimental: as §1

A. calcoaceticus /15473A = experiment: MIC against standard strain by two-fold agar dilution, A. calcoaceticus /15473A; details: Acinetobacter calcoaceticus; A. calcoaceticus /15473A; Muller-Hinton agar, 37° C., 20 hours; read-out: MIC
Experimental: as §1

E. cloacae/1194E = experiment: MIC against standard strain by two-fold agar dilution, E. cloacae/1194E; details: Enterobacter cloacae; E. cloacae/1194E; Muller-Hinton agar, 37° C., 20 hours; read-out: MIC
Experimental: as §1

K. aerogenes/1776E = experiment: MIC against standard strain by two-fold agar dilution, K. aerogenes/1776E; details: Klebsiella aerogenes; K. aerogenes/1776E; Muller-Hinton agar, 37° C., 20 hours; read-out: MIC
Experimental: as §1

S. marcescens/1826E = experiment: MIC against standard strain by two-fold agar dilution, S. marcescens/1826E; details: Serratia marcescens; S. marcescens/1826E; Muller-Hinton agar, 37° C., 20 hours; read-out: MIC
Experimental: as §1

S. typhimunium/14028A = experiment: MIC against standard strain by two-fold agar dilution, S. typhimunium/14028A; details: S. typhimunium/14028A; Muller-Hinton agar, 37° C., 20 hours; read-out: MIC
Experimental: as §1

[1] = S. aureus/giorigio, Muller-Hinton agar, 37° C., 20 hours, read-out: MIC
[2] = S. aureus/77, Muller-Hinton agar, 37° C., 20 hours, read-out: MIC
[3] = E. coli/10536, Muller-Hinton agar, 37° C., 20 hours, read-out: MIC
[4] = E. coli/3190Y, Muller-Hinton agar, 37° C., 20 hours, read-out: MIC
[5] = S. aureus/6538pA, Muller-Hinton agar, 37° C., 20 hours, read-out: MIC

SMILES	MIC (S. aureus/6538pA; 20 h) [µg/mL]	MIC (S. aureus/giorigio; [1]) [µg/mL]	MIC (S. aureus/77; [2]) [µg/mL]	MIC (E. coli/10536; 20 h) [µg/mL]	MIC (E. coli TEM1/1193E) [µg/mL]	MIC (E. coli TEM5/3739E) [µg/mL]	MIC (E. coli TEM9/2639E) [µg/mL]	MIC (P. aeruginosa/1912E) [µg/mL]	MIC (P. aeruginosa/10145) [µg/mL]	MIC (P. aeruginosa/6065Y) [µg/mL]	MIC (A. calcoaceticus /15473A) [µg/mL]	MIC (E. cloacae/1194E) [µg/mL]	MIC (K. aerogenes/1776E) [µg/mL]	MIC (S. marcescens/1826E) [µg/mL]	MIC (S. typhimunium/14028A) [µg/mL]	MIC (E. coli/10536; [3]) [µg/mL]	MIC (E. coli/3190Y; [4]) [µg/mL]	MIC (S. aureus/6538pA; [5]) [µg/mL]	also measured
C[C@H](O/N=C(\C(=O)NC1C(=O)N2C(C(=O)[O-])=C(CSc3nc(N)c4c([n+]3N)CCC4)CSC12)c1csc(N)n1)C(=O)O (stereo partly drawn) [I-5(S), 7-[(Z)-2-(2-aminothiazol-4-yl)-2-((S)-1-carboxyeth-1-oxyimino)acetamido]-3-(1,4-diamino-1,5,6,7-tetrahydro-cyclopentapyrimidinium-2-yl)thiomethyl-3-cephem-4-carboxylate]	4 (≈ 6.29 µM)	2 (≈ 3.15 µM)	8 (≈ 12.6 µM)	0.016 (≈ 0.0252 µM)	0.031 (≈ 0.0488 µM)	2 (≈ 3.15 µM)	8 (≈ 12.6 µM)	1 (≈ 1.57 µM)	2 (≈ 3.15 µM)	8 (≈ 12.6 µM)	2 (≈ 3.15 µM)	8 (≈ 12.6 µM)	0.13 (≈ 0.204 µM)	0.25 (≈ 0.393 µM)	0.25 (≈ 0.393 µM)	–	–	–	MIC (E. coli/3190Y; 20 h): ≤ 0.008 µg/mL
CO/N=C(\C(=O)NC1C(=O)N2C(C(=O)[O-])=C(CSc3nc(N)c4c([n+]3N)CCC4)CSC12)c1csc(N)n1 (stereo not shown) [Compound I-10, 7-[(Z)-2-(2-aminothiazol-4-yl)-2-(methoxyimino)acetamido]-3-(1,4-diamino-1,5,6,7-tetrahydro-cyclopentapyrimidinium-2-yl)thiomethyl-3-cephem-4-carboxylate]	0.25 (≈ 0.433 µM)	–	0.13 (≈ 0.225 µM)	–	0.016 (≈ 0.0277 µM)	0.25 (≈ 0.433 µM)	0.5 (≈ 0.866 µM)	2 (≈ 3.46 µM)	4 (≈ 6.92 µM)	16 (≈ 27.7 µM)	4 (≈ 6.92 µM)	16 (≈ 27.7 µM)	0.5 (≈ 0.866 µM)	0.25 (≈ 0.433 µM)	0.25 (≈ 0.433 µM)	0.016 (≈ 0.0277 µM)	0.016 (≈ 0.0277 µM)	–	–
CC(C)(O/N=C(\C(=O)NC1C(=O)N2C(C(=O)[O-])=C(CSc3nc(N)c4c([n+]3N)CCC4)CSC12)c1csc(N)n1)C(=O)O (stereo not shown) [Compound I-1, 7-[(Z)-2-(2-aminothiazol-4-yl)-2-(2-carboxyprop-2-oxyimino)acetamido]-3-(1,4-diamino-1,5,6,7-tetrahydro-cyclopentapyrimidinium-2-yl)thiomethyl-3-cephem-4-carboxylate]	2 (≈ 3.08 µM)	–	4 (≈ 6.16 µM)	0.063 (≈ 0.097 µM)	0.063 (≈ 0.097 µM)	0.25 (≈ 0.385 µM)	2 (≈ 3.08 µM)	0.5 (≈ 0.77 µM)	1 (≈ 1.54 µM)	4 (≈ 6.16 µM)	2 (≈ 3.08 µM)	4 (≈ 6.16 µM)	0.13 (≈ 0.2 µM)	0.25 (≈ 0.385 µM)	0.13 (≈ 0.2 µM)	–	0.016 (≈ 0.0246 µM)	–	MIC (S. aureus/giorigio; 20 h): 1 µg/mL (≈ 1.54 µM)
Nc1nc(/C(=N/OC2(C(=O)O)CCCC2)C(=O)NC2C(=O)N3C(C(=O)[O-])=C(CSc4nc(N)c5c([n+]4N)CCC5)CSC23)cs1 (stereo not shown) [Compound I-11, 7-[(Z)-2-(2-aminothiazol-4-yl)-2-(1-carboxycyclopent-1-oxyimino)acetamido]-3-(1,4-diamino-1,5,6,7-tetrahydro-cyclopentapyrimidinium-2-yl)thiomethyl-3-cephem-4-carboxylate]	–	1 (≈ 1.48 µM)	16 (≈ 23.7 µM)	–	0.13 (≈ 0.192 µM)	0.25 (≈ 0.37 µM)	2 (≈ 2.96 µM)	0.5 (≈ 0.74 µM)	1 (≈ 1.48 µM)	8 (≈ 11.8 µM)	1 (≈ 1.48 µM)	4 (≈ 5.92 µM)	0.13 (≈ 0.192 µM)	0.25 (≈ 0.37 µM)	0.25 (≈ 0.37 µM)	0.016 (≈ 0.0237 µM)	≤ 0.008	2 (≈ 2.96 µM)	–
C[n+]1c(SCC2=C(C(=O)[O-])N3C(=O)C(NC(=O)/C(=N\OC(C)(C)C(=O)O)c4csc(N)n4)C3SC2)nc(N)c2c1CCC2 (stereo not shown) [Compound I-2, 7-[(Z)-2-(2-aminothiazol-4-yl)-2-(2-carboxyprop-2-oxyimino)acetamido]-3-(4-amino-1-methyl-1,5,6,7-tetrahydro-cyclopentapyrimidinium-2-yl)thiomethyl-3-cephem-4-carboxylate]	–	1 (≈ 1.54 µM)	–	–	0.13 (≈ 0.2 µM)	0.5 (≈ 0.771 µM)	2 (≈ 3.08 µM)	0.5 (≈ 0.771 µM)	1 (≈ 1.54 µM)	4 (≈ 6.17 µM)	1 (≈ 1.54 µM)	4 (≈ 6.17 µM)	0.13 (≈ 0.2 µM)	0.5 (≈ 0.771 µM)	0.25 (≈ 0.385 µM)	0.13 (≈ 0.2 µM)	0.063 (≈ 0.0971 µM)	2 (≈ 3.08 µM)	MIC (S. aureus/77; 20 h): 8 µg/mL (≈ 12.3 µM)
